# Measurements reported in PubChem BioAssay (NCI).
# “And” between values parts separate entries of the source, which are not always exact repeats. Identical values can stand only once.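 How tested: cells in 96-well plates exposed to compound for 48 hours at five concentrations. At the GI50, growth is halved. TGI denotes the concentration required for complete inhibition of growth.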
# Experiments:
# Experiment in all cases: NCI tumour cell line growth inhibition, 48 h
# MDA-MB-231 breast = test system: MDA-MB-231 breast
# T-47D breast = test system: T-47D breast
# PC-3 prostate = test system: PC-3 prostate
# DMS 273 small cell lung = test system: DMS 273 small cell lung
# RXF-631 renal = test system: RXF-631 renal
# SNB-78 CNS = test system: SNB-78 CNS
# DMS 114 small cell lung = test system: DMS 114 small cell lung
# XF 498 CNS = test system: XF 498 CNS
# MDA-N = test system: MDA-N
SMILES,GI50 (MDA-MB-231 breast),TGI (MDA-MB-231 breast),GI50 (T-47D breast),TGI (T-47D breast),GI50 (PC-3 prostate),TGI (PC-3 prostate),other results
O=[N+]([O-])c1ccc(N/N=C\c2cc(Cl)ccc2O)nc1,3.88 µM,33.1 µM,2.86 µM,> 100 µM,0.747 µM,55.6 µM,–
COc1c(OC(C)=O)ccc(/C=C2\N=C(C)OC2=O)c1[N+](=O)[O-],–,–,–,–,–,–,TGI (DMS 273 small cell lung): > 100 µM; TGI (RXF-631 renal): > 100 µM; TGI (SNB-78 CNS): > 100 µM
O=C(Cc1ccccc1)NN1C(=O)C(Cl)C1c1cccc(O)c1 (configuration not stated),–,–,–,–,–,–,TGI (DMS 114 small cell lung): 29.4 µM; TGI (DMS 273 small cell lung): 37.9 µM; TGI (XF 498 CNS): 35.4 µM; TGI (SNB-78 CNS): 73.6 µM
COC(=O)Nc1nc2ccc(C(=O)c3ccc[nH]3)cc2[nH]1,–,> 100 µM,–,> 100 µM,–,–,TGI (MDA-N): 0.419 µM
COc1cc(O)c(C(=O)/C=C/c2ccccc2)c(OC)c1,–,24.2 µM,–,24.6 µM,–,–,TGI (MDA-N): 14.7 µM
CCCCN(CCCC)C(=O)C(=O)CC(=O)c1ccc(Br)cc1,–,–,–,–,–,–,TGI (DMS 114 small cell lung): > 100 µM; TGI (DMS 273 small cell lung): > 100 µM; TGI (XF 498 CNS): > 100 µM; TGI (SNB-78 CNS): > 100 µM
COc1cc2c3c(n(C)c(=O)c2cc1OC)-c1cc2c(cc1/C3=C\CCCCN)OCO2,2.94 µM,11.4 µM,37.7 µM,> 100 µM,20 µM,62.1 µM,–
O=C(CCCc1c[nH]c2ccccc12)NC1CC(=O)c2c(Br)sc(Br)c21 (configuration not stated),16.5 µM,32.1 µM,26.5 µM,> 100 µM,21 µM,75.7 µM,–
COc1ccc(N(C)c2nc(C)nc3ccccc23)cc1,< 0.01 µM,> 100 µM,14.2 µM,> 100 µM,< 0.01 µM,36.8 µM,–
O=C1c2ccccc2-c2c1c1ccccc1c(=O)n2CCO,–,> 100 µM,–,> 100 µM,–,> 100 µM,TGI (MDA-N): > 100 µM
O/N=C1\CCc2cc(-c3nc(C4CCNCC4)[nH]c3-c3ccncc3)ccc21,> 25 µM,> 25 µM,> 25 µM,> 25 µM,> 25 µM,> 25 µM,–
O=C1c2cc3c(cc2-c2c1c1cc(Cl)c(Cl)cc1c(=O)n2CCCn1ccnc1)OCO3,0.0996 µM,> 100 µM,< 0.01 µM,0.0636 µM,0.0171 µM,> 100 µM,–
O=C1C=C[C@]2(C[C@@H](c3cccc(C(F)(F)F)c3)O[C@@H](c3cccc(C(F)(F)F)c3)O2)O1,2.15 µM,6.29 µM,1.1 µM,3.96 µM,2.4 µM,8.27 µM,–
Cc1ccc(-c2c(C#N)c(N)nc(N3CCOCC3)c2C#N)o1,21 µM,80.7 µM,–,–,30.6 µM,> 100 µM,–
OB([O][Hg][c]1ccccc1)[O][Hg][c]1ccccc1,0.628 µM,1.89 µM,–,–,0.758 µM,2.42 µM,–
CCOC(=O)/N=c1\ss/c(=N\C(=S)N(C)C)n1-c1ccccc1,–,–,–,–,–,–,GI50 (DMS 114 small cell lung): > 100 µM; GI50 (DMS 273 small cell lung): 77.1 µM; TGI (DMS 273 small cell lung): > 100 µM; TGI (XF 498 CNS): > 100 µM; TGI (SNB-78 CNS): > 100 µM

SMILES,GI50 (MDA-MB-231 breast),TGI (MDA-MB-231 breast),GI50 (T-47D breast),TGI (T-47D breast),GI50 (PC-3 prostate),TGI (PC-3 prostate),other results
COc1ccc(/C(=C/c2cc(OC)c(OC)c(OC)c2)[N+](=O)[O-])cc1,1.47 µM,3.28 µM,1.65 µM,10.3 µM,1.95 µM,3.88 µM,–
C1CCC([PH+](C2CCCCC2)C2CCCCC2[PH+](C2CCCCC2)C2CCCCC2)CC1.[Au].[CH-]1CCCCC1C1CCCC[N-]1 (configuration not stated),–,–,–,–,0.249 µM,5.26 µM,–
COc1cc2cc(Oc3ccc(NC(=O)Nc4cccc(C(F)(F)F)c4)cc3)c(C)nc2cc1OCCN1CCCCC1,1.36 µM,2.73 µM,–,–,1.41 µM,2.77 µM,–
COc1cc(CCc2cc(NC(=O)c3ccc(N4C[C@@H](C)N[C@@H](C)C4)cc3)n[nH]2)cc(OC)c1,> 10 µM and 5.81 µM,> 10 µM and 19.7 µM,> 10 µM and 15.3 µM,> 10 µM and 31.6 µM,> 10 µM and 6.92 µM,> 10 µM and 23.9 µM,–
N#C/C(=C\c1c(-c2ccccc2)[nH]c2ccccc12)C(=O)c1ccc(Cl)cc1,4.09 µM,47.8 µM,2.89 µM,18.4 µM,3.42 µM,> 70.3 µM,–
ClC(=Nc1cccc2ccccc12)N(c1ccccc1)c1ccccc1,–,> 100 µM,–,> 100 µM,–,> 100 µM,TGI (MDA-N): > 100 µM
O=c1c(Cl)nnc2sc3ccccc3n12,14.2 µM,> 100 µM,–,–,47.8 µM,> 100 µM,–
N[C@H]1C2C3CC4C5CC(C42)C1(c1ccccc1)C53 (some centres not stated),–,–,–,–,–,–,TGI (DMS 114 small cell lung): > 100 µM; TGI (DMS 273 small cell lung): > 100 µM; TGI (XF 498 CNS): > 100 µM; TGI (SNB-78 CNS): > 100 µM
NC(N)=NS(=O)(=O)c1ccc(NC(=O)c2cccc3c(Nc4ccc(S(=O)(=O)N=C(N)N)cc4)c4ccc(Cl)cc4nc23)cc1,–,–,–,–,–,–,TGI (DMS 114 small cell lung): > 100 µM; TGI (DMS 273 small cell lung): > 100 µM; TGI (XF 498 CNS): > 100 µM; TGI (SNB-78 CNS): > 100 µM
COC(=O)[C@]12CC[C@@H](C)[C@H](C)[C@@H]1C1=CC[C@@H]3[C@@]4(C)CC(=O)[C@H](O)[C@@]5(C)COC(=C45)C[C@@]3(C)[C@]1(C)CC2,20.1 µM,42.4 µM,18.4 µM,38.8 µM,16.9 µM,33.8 µM,–
Cc1cc(Br)cc(C)c1NC(=O)C(=O)CC(=O)c1sc(-n2nc(-c3ccccc3)cc2-c2ccccc2)nc1C,–,–,–,–,–,–,TGI (DMS 114 small cell lung): > 100 µM; TGI (DMS 273 small cell lung): > 100 µM; TGI (RXF-631 renal): > 100 µM; TGI (SNB-78 CNS): > 100 µM
CCCCCCCCCCCCCCCCCCNC(=O)[C@H]1CSC(c2ccc(OC)c(F)c2)N1 (some centres not stated),1.9 µM,5.16 µM,2.21 µM,6.57 µM,6.09 µM,28.3 µM,–
COc1cc[nH]c1/C=C1\C(=O)Nc2ccc(F)c(C#C[C@@H](O)[C@@H](N)[C@@H](C)O)c21,0.485 µM,2.37 µM,0.993 µM,6.07 µM,0.369 µM,1.6 µM,–
CC12OC(C(=O)C13CC3)C1C(=O)c3ccccc3C(=O)C12 (configuration not stated),46.8 µM,> 100 µM,24.4 µM,> 100 µM,19.8 µM,52.9 µM,–
CCCCOC(=O)C(=O)C(CC(C(=O)Cc1ccccc1)c1ccccc1)C(=O)C=C(C)C (configuration not stated),–,> 100 µM,–,–,–,> 100 µM,TGI (MDA-N): > 100 µM
